# Earlier results, collected in patent publication US12194111B2, “Alpha emitter compositions and methods” (Nant Holdings IP, LLC, priority 2018, dated 2025).
# Test system: relapsed or refractory soft tissue sarcoma
# Settings: clinical trial; treatment of relapsed or refractory soft tissue sarcoma
structure (smiles),measurement,value
COc1cccc2c1C(=O)c1c(O)c3c(c(O)c1C2=O)C[C@@](O)(/C(CO)=N/NC(=O)CCCCCN1C(=O)C=CC1=O)C[C@@H]3O[C@H]1C[C@H](N)[C@H](O)[C@H](C)O1 [aldoxorubicin],progression free disease,did not show a significant increase in progression free disease
